According to patent publication US8349824B2, “Triazolopyridine compounds” (Hoffmann-La Roche Inc., priority 2010, dated 2013):

Legend:
human PDE10A full length = molecular target: T1, human PDE10A full length (Homo sapiens, UniProt Q9Y233); experiment: PDE10A Scintillation Proximity Assay (SPA), human PDE10A full length assay; format: biochemical; settings: 50 nM cGMP + 50 nM [3H]-cGMP, 20 minutes at room temperature, read-out: PDE10A inhibition IC50
T1 construct: purchased Enzo Life Science, Lausen, Switzerland SE-534
In short: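 IC50 values come from radioactive counts across a range of inhibitor concentrations, using YSi-SPA beads in zinc sulphate as stop reagent. Full-length enzyme hydrolysed 50 nM cGMP with 50 nM [3H]-cGMP for 20 min at room temperature in pH 7.5 HEPES buffer containing 10 mM MgCl2 and 0.05 mg/ml BSA.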

T1 sequence (Q9Y233 1-779 isoform Q9Y233-1): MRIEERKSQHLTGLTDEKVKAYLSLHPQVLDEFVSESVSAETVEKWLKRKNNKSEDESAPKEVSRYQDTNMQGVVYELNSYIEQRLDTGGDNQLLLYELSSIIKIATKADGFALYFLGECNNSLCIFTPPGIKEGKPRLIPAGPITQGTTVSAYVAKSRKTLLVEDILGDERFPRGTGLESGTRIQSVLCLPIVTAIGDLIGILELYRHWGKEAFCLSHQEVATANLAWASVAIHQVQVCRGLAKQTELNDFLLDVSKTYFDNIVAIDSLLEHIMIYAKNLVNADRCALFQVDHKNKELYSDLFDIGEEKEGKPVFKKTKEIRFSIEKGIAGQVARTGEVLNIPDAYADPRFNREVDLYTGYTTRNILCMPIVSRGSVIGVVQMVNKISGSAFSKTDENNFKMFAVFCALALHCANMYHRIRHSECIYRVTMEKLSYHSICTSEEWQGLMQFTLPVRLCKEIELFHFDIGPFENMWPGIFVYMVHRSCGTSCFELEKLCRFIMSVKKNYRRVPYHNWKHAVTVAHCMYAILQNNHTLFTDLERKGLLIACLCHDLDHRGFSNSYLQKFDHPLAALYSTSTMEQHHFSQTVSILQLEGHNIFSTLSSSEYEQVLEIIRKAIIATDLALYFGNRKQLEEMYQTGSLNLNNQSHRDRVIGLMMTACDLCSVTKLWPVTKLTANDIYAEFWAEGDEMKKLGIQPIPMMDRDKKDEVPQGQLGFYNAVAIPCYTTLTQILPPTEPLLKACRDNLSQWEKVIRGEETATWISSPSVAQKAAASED

Q: What does the source list for `CN(C)C(=O)c1cnn(C)c1C(=O)Nc1ccn2nc(N(C)CCF)nc2c1` [Example 72, 2-Methyl-2H-pyrazole-3,4-dicarboxylic acid 4-dimethylamide 3-({2-[(2-fluoro-ethyl)-methyl-amino]-[1,2,4]triazolo[1,5-a]pyridin-7-yl}-amide)]?
A: IC50 (human PDE10A full length): 20.6 nM; melting point: 203 to 204 °C

Q: Which IC50 (human PDE10A full length) does the source give for `CCN(C)C(=O)c1cnn(C)c1C(=O)Nc1ccn2nc(N(C)CCF)nc2c1` [Example 73, 2-Methyl-2H-pyrazole-3,4-dicarboxylic acid 4-(ethyl-methyl-amide) 3-({2-[(2-fluoro-ethyl)-methyl-amino]-[1,2,4]triazolo[1,5-a]pyridin-7-yl}-amide)] here?
A: 11.6 nM

Q: And the melting point?
A: 145 to 147 °C

Q: What does the source list for `CN(CCF)c1nc2cc(NC(=O)c3c(C(=O)N(C)C4CC4)cnn3C)ccn2n1` [Example 74, 2-Methyl-2H-pyrazole-3,4-dicarboxylic acid 4-(cyclopropyl-methyl-amide)3-({2-[(2-fluoro-ethyl)-methyl-amino]-[1,2,4]triazolo[1,5-a]pyridin-7-yl}-amide)]?
A: IC50 (human PDE10A full length): 1.86 nM; melting point: 148 to 151 °C

Q: For `COc1ccccc1-c1nc2cc(NC(=O)c3c(C(=O)N4CCC4)cnn3C)ccn2n1` [Example 102, 4-(Azetidine-1-carbonyl)-2-methyl-2H-pyrazole-3-carboxylic acid [2-(2-methoxy-phenyl)-[1,2,4]triazolo[1,5-a]pyridin-7-yl]-amide], which IC50 (human PDE10A full length) is on record?
A: 0.65 nM

Q: What about the melting point of the same compound?
A: 258.1 °C

Q: Which IC50 (human PDE10A full length) does the source give for `COc1ccccc1-c1nc2cc(NC(=O)c3c(C(=O)N(C)C4CC4)cnn3C)ccn2n1` [Example 103, 2-Methyl-2H-pyrazole-3,4-dicarboxylic acid 4-(cyclopropyl-methyl-amide)3-{[2-(2-methoxy-phenyl)-[1,2,4]triazolo[1,5-a]pyridin-7-yl]-amide}] here?
A: 0.31 nM

Q: What about the melting point of the same compound?
A: 239.2 °C

Q: What does the source list for `CN(C)C(=O)c1cnn(C)c1C(=O)Nc1ccn2nc(-c3cccc(F)c3)nc2c1` [Example 104, 2-Methyl-2H-pyrazole-3,4-dicarboxylic acid 4-dimethylamide 3-{[2-(3-fluoro-phenyl)[1,2,4]triazolo[1,5-a]pyridin-7-yl]-amide}]?
A: IC50 (human PDE10A full length): 1.43 nM; melting point: 255 to 260 °C

Q: For `Cn1ncc(C(=O)N2CCC2)c1C(=O)Nc1ccn2nc(-c3cccc(F)c3)nc2c1` [Example 105, 4-(Azetidine-1-carbonyl)-2-methyl-2H-pyrazole-3-carboxylic acid [2-(3-fluoro-phenyl)-[1,2,4]triazolo[1,5-a]pyridin-7-yl]-amide], which IC50 (human PDE10A full length) is on record?
A: 1.11 nM

Q: And the melting point?
A: 232 to 236 °C

Q: With `Cn1ncc(C(=O)N2CCOCC2)c1C(=O)Nc1ccn2nc(-c3cccc(F)c3)nc2c1` [Example 106, 2-Methyl-4-(morpholine-4-carbonyl)-2H-pyrazole-3-carboxylic acid [2-(3-fluoro-phenyl)-[1,2,4]triazolo[1,5-a]pyridin-7-yl]-amide] as the compound, how does the IC50 (human PDE10A full length) read?
A: 1.54 nM

Q: And the melting point?
A: 212 to 214 °C

Q: For `COC1CN(C(=O)c2cnn(C)c2C(=O)Nc2ccn3nc(-c4cccc(F)c4)nc3c2)C1` [Example 107, 4-(3-Methoxy-azetidine-1-carbonyl)-2-methyl-2H-pyrazole-3-carboxylic acid [2-(3-fluoro-phenyl)-[1,2,4]triazolo[1,5-a]pyridin-7-yl]-amide], which IC50 (human PDE10A full length) is on record?
A: 4.7 nM

Q: And the melting point?
A: 255 to 257 °C

Q: With `CN(C)C(=O)c1cnn(C)c1C(=O)Nc1ccn2nc(-c3cccnc3F)nc2c1` [Example 109, N5-(2-(2-fluoropyridin-3-yl)-[1,2,4]triazolo[1,5-a]pyridin-7-yl)-N4,N4,1-trimethyl-1H-pyrazole-4,5-dicarboxamide] as the compound, how does the IC50 (human PDE10A full length) read?
A: 3.74 nM

Q: And the melting point?
A: 249 to 251 °C

Q: Which results are given for `Cn1ncc(C(=O)N2CCOCC2)c1C(=O)Nc1ccn2nc(-c3cccnc3F)nc2c1` [Example 111, 2-Methyl-4-(morpholine-4-carbonyl)-2H-pyrazole-3-carboxylic acid [2-(2-fluoro-pyridin-3-yl)-[1,2,4]triazolo[1,5-a]pyridin-7-yl]-amide]?
A: IC50 (human PDE10A full length): 6.62 nM; melting point: 267 to 269 °C

Q: Which results are given for `Cn1ncc(C(=O)N2CC3(COC3)C2)c1C(=O)Nc1ccn2nc(N3CCOCC3)nc2c1` [Example 112, 2-Methyl-4-(2-oxa-6-aza-spiro[3.3]heptane-6-carbonyl)-2H-pyrazole-3-carboxylic acid (2-morpholin-4-yl-[1,2,4]triazolo[1,5-a]pyridin-7-yl)-amide]?
A: IC50 (human PDE10A full length): 57.3 nM; melting point: > 300 °C

Q: For `CN(CCF)c1nc2cc(NC(=O)c3c(C(=O)N4CC(F)C4)cnn3C)ccn2n1` [Example 114, 4-(3-Fluoro-azetidine-1-carbonyl)-2-methyl-2H-pyrazole-3-carboxylic acid {2-[(2-fluoro-ethyl)-methyl-amino]-[1,2,4]triazolo[1,5-a]pyridin-7-yl}-amide], which IC50 (human PDE10A full length) is on record?
A: 5.66 nM

Q: And the melting point?
A: 233 to 236 °C

Q: Which IC50 (human PDE10A full length) does the source give for `Cn1ncc(C(=O)N2CCOCC2)c1C(=O)Nc1ccn2nc(-c3ccnc(F)c3)nc2c1` [Example 117, N-(2-(2-fluoropyridin-4-yl)-[1,2,4]triazolo[1,5-a]pyridin-7-yl)-1-methyl-4-(morpholine-4-carbonyl)-1H-pyrazole-5-carboxamide] here?
A: 15 nM

Q: What about the melting point of the same compound?
A: > 280 °C

Q: What does the source list for `Cn1ncc(C(=O)N2CCC2)c1C(=O)Nc1ccn2nc(-c3ccnc(F)c3)nc2c1` [Example 118, 4-(Azetidine-1-carbonyl)-2-methyl-2H-pyrazole-3-carboxylic acid [2-(2-fluoro-pyridin-4-yl)-[1,2,4]triazolo[1,5-a]pyridin-7-yl]-amide]?
A: IC50 (human PDE10A full length): 6.78 nM; melting point: > 280 °C

Q: With `Cn1ncc(C(=O)N2CCC2)c1C(=O)Nc1ccn2nc(-c3cccc(F)n3)nc2c1` [Example 119, 4-(Azetidine-1-carbonyl)-2-methyl-2H-pyrazole-3-carboxylic acid [2-(6-fluoro-pyridin-2-yl)-[1,2,4]triazolo[1,5-a]pyridin-7-yl]-amide] as the compound, how does the IC50 (human PDE10A full length) read?
A: 1.2 nM

Q: And the melting point?
A: 263.9 °C

Q: What does the source list for `CN(C)C(=O)c1cnn(C)c1C(=O)Nc1ccn2nc(-c3cccc(F)n3)nc2c1` [Example 120, 2-Methyl-2H-pyrazole-3,4-dicarboxylic acid 4-dimethylamide 3-{[2-(6-fluoro-pyridin-2-yl)-[1,2,4]triazolo[1,5-a]pyridin-7-yl]-amide}]?
A: IC50 (human PDE10A full length): 1.32 nM; melting point: 264.4 °C

Q: For `CN(C(=O)c1cnn(C)c1C(=O)Nc1ccn2nc(N3CCCC3)nc2c1)C1CC1` [Example 123, 2-Methyl-2H-pyrazole-3,4-dicarboxylic acid 4-(cyclopropyl-methyl-amide)3-[(2-pyrrolidin-1-yl-[1,2,4]triazolo[1,5-a]pyridin-7-yl)-amide]], which IC50 (human PDE10A full length) is on record?
A: 0.6 nM

Q: And the melting point?
A: 274.3 °C

Q: Which IC50 (human PDE10A full length) does the source give for `CCN(C)C(=O)c1cnn(C)c1C(=O)Nc1ccn2nc(N3CCCC3)nc2c1` [Example 124, 2-Methyl-2H-pyrazole-3,4-dicarboxylic acid 4-(ethyl-methyl-amide)3-[(2-pyrrolidin-1-yl-[1,2,4]triazolo[1,5-a]pyridin-7-yl)-amide]] here?
A: 0.86 nM

Q: And the melting point?
A: 323.1 °C
